Blank lines part the entries; values can stand above or below the compound they belong to.
Key:
[1] = test system: N-acetyl transferase (NAT); experiment: NAT metaprobe 13C recovery in urinary glucosamine fraction; assay type: in vivo, Sprague-Dawley rats; details: 5 mg/kg by gastric intubation, 24 hour urine, bile acid glucosamine fraction
[2] = test system: N-acetyl transferase (NAT); experiment: NAT metaprobe 13C recovery in human urine; assay type: in vivo
Method: The tracers were ingested each time with 100 ml of a 10% aqueous solution of high fructose corn syrup. Urine samples were collected at 12, 24 and 36 hours. […] The analysis of each urine sampling interval was carried out in triplicate and the variation among replicates fell within 15%. […] Also, since aspartyl-N-acetyl-glucosamine pyranoside is rapidly synthesized and subsequently turned over by lysozomes, its rate of appearance in plasma can be determined, along with the plasma rate of appearance of N-acetylglucosamine, at shorter intervals post dosing. Thus, the MRI2 index could be computed within reach of the two-hour preferred sampling time frame for the practicable implementation of diagnostic procedures with metaprobes.

[3] = test system: glutamine-fructose-6-phosphate aminotransferase (GFAT); details: rat, in vivo
[4] = biological target: T1, Prolyl oligopeptidase (PO) (Homo sapiens, UniProt P48147); experiment: prolyl oligopeptidase metaprobe hydrolysis in bronchoalveolar lavage fluid; assay type: biochemical; details: Human BAL
T1 sequence (P48147 1-710): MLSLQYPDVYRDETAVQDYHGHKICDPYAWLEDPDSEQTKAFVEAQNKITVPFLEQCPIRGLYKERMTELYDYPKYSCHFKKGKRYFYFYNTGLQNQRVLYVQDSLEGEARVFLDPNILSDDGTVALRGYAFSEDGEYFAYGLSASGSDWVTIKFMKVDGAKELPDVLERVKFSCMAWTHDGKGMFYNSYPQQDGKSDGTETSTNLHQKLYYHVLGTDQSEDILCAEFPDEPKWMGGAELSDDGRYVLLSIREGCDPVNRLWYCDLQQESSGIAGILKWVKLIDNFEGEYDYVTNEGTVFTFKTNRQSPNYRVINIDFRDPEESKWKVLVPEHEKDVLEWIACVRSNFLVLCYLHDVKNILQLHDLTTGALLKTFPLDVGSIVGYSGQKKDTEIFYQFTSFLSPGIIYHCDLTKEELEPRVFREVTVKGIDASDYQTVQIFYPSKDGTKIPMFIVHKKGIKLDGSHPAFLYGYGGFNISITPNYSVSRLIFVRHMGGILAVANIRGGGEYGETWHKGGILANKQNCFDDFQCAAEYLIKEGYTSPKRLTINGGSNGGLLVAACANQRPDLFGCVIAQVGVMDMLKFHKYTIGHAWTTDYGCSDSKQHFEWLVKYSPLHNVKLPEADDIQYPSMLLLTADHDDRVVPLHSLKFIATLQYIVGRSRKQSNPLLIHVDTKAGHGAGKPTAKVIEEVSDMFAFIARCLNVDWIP

[5] = biological target: T2, Prolyl oligopeptidase (PO) (Rattus norvegicus, UniProt O70196); experiment: prolyl oligopeptidase metaprobe hydrolysis in rat plasma, brain and lung preparations; assay type: biochemical
T2 sequence (O70196 1-710): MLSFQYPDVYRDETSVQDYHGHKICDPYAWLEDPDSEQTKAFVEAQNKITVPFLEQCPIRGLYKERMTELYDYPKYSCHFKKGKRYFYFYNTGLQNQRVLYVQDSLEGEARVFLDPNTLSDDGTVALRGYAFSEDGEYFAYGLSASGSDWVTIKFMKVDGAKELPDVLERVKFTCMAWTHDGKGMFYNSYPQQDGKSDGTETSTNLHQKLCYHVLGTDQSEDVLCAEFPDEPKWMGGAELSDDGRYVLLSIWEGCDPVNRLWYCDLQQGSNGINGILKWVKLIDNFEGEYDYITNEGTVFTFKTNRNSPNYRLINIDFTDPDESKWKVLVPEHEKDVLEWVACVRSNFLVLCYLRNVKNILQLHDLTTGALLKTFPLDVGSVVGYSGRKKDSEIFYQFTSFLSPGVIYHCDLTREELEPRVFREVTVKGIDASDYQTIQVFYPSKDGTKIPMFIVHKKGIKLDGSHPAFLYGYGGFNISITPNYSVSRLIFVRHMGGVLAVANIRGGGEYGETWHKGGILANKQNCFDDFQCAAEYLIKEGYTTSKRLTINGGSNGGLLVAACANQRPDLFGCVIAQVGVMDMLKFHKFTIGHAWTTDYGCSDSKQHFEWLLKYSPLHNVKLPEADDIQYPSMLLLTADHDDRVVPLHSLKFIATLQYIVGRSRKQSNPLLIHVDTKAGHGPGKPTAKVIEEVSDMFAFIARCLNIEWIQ

percent recovery of 13C [1]: 0.15+/−0.073%
13C % Dose ([2]; time point 12 hr): .089 % Dose
13C % Dose ([2]; time point 24 hr): .189 % Dose
13C % Dose ([2]; time point 36 hr): .213 % Dose
Structure (SMILES): CC(=O)N[C@@H]1[C@@H](O)[C@H](O)[C@@H](CO)O[13CH]1O (some centres unmarked) [N-acetyl-1-^13C-glucosamine]

normalized 15N/13C GFAT-MRI1 [3]: 24
Structure (SMILES): CC(=O)NC(CCC([15NH2])=O)C(=O)O (centres unmarked) [N-acetyl-5-^15N-glutamine]

% Dose metabolized ([4]; Control, two hour incubation at 37° C.): 30 ± 4 % Dose
% Dose metabolized ([4]; Test sample, ARDS): 54 ± 13 % Dose
% Dose metabolized ([5]; Rat Brain homogenate (acetone powder), Control): 44 ± 8 % Dose
% Dose metabolized ([5]; Rat Lung homogenate (acetone powder), Control): 24 ± 12 % Dose
% Dose metabolized ([5]; Rat Plasma, Control): 2 ± 4 % Dose
% Dose metabolized ([5]; Rat Plasma, Test sample, Sepsis): 8 ± 5 % Dose
Structure (SMILES): CCO[13C](=O)[C@H](CC)NC(=O)[C@@H]1CCCN1C(=O)CNC(=O)OCc1ccccc1 [Prolyl oligopeptidase Metaprobe, N-carbobenzyloxy-glycyl-L-prolyl-L-2-aminobutyric [1-^13C] acid ethyl ester]
